These molecules were tested against T1, Recombinant Human SSAO/VAP-1/AOC3 (Homo sapiens, UniProt Q16853) (assay: Human Semicarbazide-Sensitive Amine Oxidase (SSAO) Assay). Conditions: recombinant enzyme, 30 minutes preincubation at 37° C., benzylamine substrate, Amplex Ultra Red/HRP fluorescence.
T1 construct: purchased R&D systems 3957-AO
T1 sequence (Q16853 1-763): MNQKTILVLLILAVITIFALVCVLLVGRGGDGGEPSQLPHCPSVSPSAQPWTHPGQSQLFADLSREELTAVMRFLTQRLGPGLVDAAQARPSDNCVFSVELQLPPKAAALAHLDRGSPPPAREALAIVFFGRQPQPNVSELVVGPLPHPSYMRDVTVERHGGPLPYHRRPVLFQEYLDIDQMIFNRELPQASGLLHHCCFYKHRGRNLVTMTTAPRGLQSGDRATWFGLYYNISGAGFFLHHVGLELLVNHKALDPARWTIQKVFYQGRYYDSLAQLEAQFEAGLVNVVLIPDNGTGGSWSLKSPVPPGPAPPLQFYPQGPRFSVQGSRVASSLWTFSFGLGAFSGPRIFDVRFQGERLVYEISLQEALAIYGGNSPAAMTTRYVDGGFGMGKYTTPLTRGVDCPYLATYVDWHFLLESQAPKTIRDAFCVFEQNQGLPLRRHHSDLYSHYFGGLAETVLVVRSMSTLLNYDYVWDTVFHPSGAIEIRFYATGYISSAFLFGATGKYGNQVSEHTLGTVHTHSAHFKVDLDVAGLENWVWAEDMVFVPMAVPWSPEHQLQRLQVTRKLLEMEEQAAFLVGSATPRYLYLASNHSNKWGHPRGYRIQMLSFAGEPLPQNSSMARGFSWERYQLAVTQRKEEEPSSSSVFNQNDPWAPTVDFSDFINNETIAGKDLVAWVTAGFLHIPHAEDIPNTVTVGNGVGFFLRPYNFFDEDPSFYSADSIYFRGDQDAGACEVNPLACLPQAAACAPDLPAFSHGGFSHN
Format: biochemical
Method in brief: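 IC50 from kinetic Amplex Ultra Red/HRP fluorescence (ex 544, em 590 nm, 30-120 min) after benzylamine addition. Beforehand, 6-10 compound dilutions were preincubated 30 min at 37 °C with recombinant human SSAO in 50 mM HEPES (enzyme working concentration 2.5 μg/ml).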

SMILES	IC50 [nM]
NC/C(=C\F)COc1ccc(C23CCC(C(=O)NC4CC5(CCOCC5)C4)(CC2)CC3)cc1 [Compound 2.114, (E)-4-(4-((2-(aminomethyl)-3-fluoroallyl)oxy)phenyl)-N-(7-oxaspiro[3.5]nonan-2-yl)bicyclo[2.2.2]octane-1-carboxamide]	≤ 10
CO[C@H]1CCC[C@@H](NC(=O)C23CCC(c4ccc(OC/C(=C/F)CN)cc4)(CC2)CC3)C1 [Compound 2.116, 4-(4-(((E)-2-(aminomethyl)-3-fluoroallyl)oxy)phenyl)-N-((1R,3S)-3-methoxycyclohexyl)bicyclo [2.2.2]octane-1-carboxamide]	≤ 10
NC/C(=C\F)COc1ccc(C23CCC(C(=O)NC4CCN(c5ccccn5)CC4)(CC2)CC3)cc1 [Compound 2.117, (E)-4-(4-((2-(aminomethyl)-3-fluoroallyl)oxy)phenyl)-N-(1-(pyridin-2-yl)piperidin-4-yl)bicyclo[2.2.2]octane-1-carboxamide]	≤ 10
COc1ccc(CNC(=O)C23CCC(c4ccc(OC/C(=C/F)CN)cc4)(CC2)CC3)cc1 [Compound 2.118, (E)-4-(4-((2-(aminomethyl)-3-fluoroallyl)oxy)phenyl)-N-(4-methoxybenzyl)bicyclo[2.2.2] octane-1-carboxamide]	≤ 10
COc1cccc(CCNC(=O)C23CCC(c4ccc(OC/C(=C/F)CN)cc4)(CC2)CC3)c1 [Compound 2.119, (E)-4-(4-((2-(aminomethyl)-3-fluoroallyl)oxy)phenyl)-N-(3-methoxyphenethyl)bicyclo [2.2.2]octane-1-carboxamide]	≤ 10
NC/C(=C\F)COc1ccc(C23CCC(C(=O)NCCOC4CCC4)(CC2)CC3)cc1 [Compound 2.120, (E)-4-(4-((2-(aminomethyl)-3-fluoroallyl)oxy)phenyl)-N-(2-cyclobutoxyethyl)bicyclo [2.2.2]octane-1-carboxamide]	≤ 10
CO[C@H]1CCN(C(=O)C23CCC(c4ccc(OC/C(=C/F)CN)cc4)(CC2)CC3)C1 [Compound 2.121, (S,E)-(4-(4-((2-(aminomethyl)-3-fluoroallyl)oxy)phenyl)bicyclo [2.2.2]octan-1-yl)(3-methoxypyrrolidin-1-yl)methanone]	≤ 10
NC/C(=C\F)COc1ccc(C23CCC(C(=O)Nc4ccncn4)(CC2)CC3)cc1 [Compound 2.122, (E)-4-(4-((2-(aminomethyl)-3-fluoroallyl)oxy)phenyl)-N-(pyrimidin-4-yl)bicyclo[2.2.2]octane-1-carboxamide]	≤ 10
CO[C@H](C)CNC(=O)C12CCC(c3ccc(OC/C(=C/F)CN)cc3)(CC1)CC2 [Compound 2.123, (R,E)-4-(4-((2-(aminomethyl)-3-3-fluoroallyl)oxy)phenyl)-N-(2-methoxypropyl)bicyclo[2.2.2] octane-1-carboxamide]	≤ 10
COC[C@H]1C[C@@H](NC(=O)C23CCC(c4ccc(OC/C(=C/F)CN)cc4)(CC2)CC3)C1 [Compound 2.124, 4-(4-(((E)-2-(aminomethyl)-3-fluoroallyl)oxy)phenyl)-N-((1s,3s)-3-(methoxymethyl)cyclobutyl) bicyclo[2.2.2]octane-1-carboxamide]	≤ 10
CO[C@@H](C)CNC(=O)C12CCC(c3ccc(OC/C(=C/F)CN)cc3)(CC1)CC2 [Compound 2.125, (S,E)-4-(4-((2-(aminomethyl)-3-3-fluoroallyl)oxy)phenyl)-N-(2-methoxypropyl)bicyclo[2.2.2] octane-1-carboxamide]	≤ 10
COC[C@H]1C[C@H](NC(=O)C23CCC(c4ccc(OC/C(=C/F)CN)cc4)(CC2)CC3)C1 [Compound 2.126, 4-(4-(((E)-2-(aminomethyl)-3-fluoroallyl)oxy)phenyl)-N-((1r,3r)-3-(methoxymethyl)cyclobutyl) bicyclo[2.2.2]octane-1-carboxamide]	≤ 10
COc1cccc(CNC(=O)C23CCC(c4ccc(OC/C(=C/F)CN)cc4)(CC2)CC3)c1 [Compound 2.127, (E)-4-(4-((2-(aminomethyl)-3-fluoroallyl)oxy)phenyl)-N-(3-methoxybenzyl)bicyclo[2.2.2] octane-1-carboxamide]	≤ 10
COc1ccccc1CNC(=O)C12CCC(c3ccc(OC/C(=C/F)CN)cc3)(CC1)CC2 [Compound 2.128, (E)-4-(4-((2-(aminomethyl)-3-fluoroallyl)oxy)phenyl)-N-(2-methoxybenzyl)bicyclo[2.2.2] octane-1-carboxamide]	≤ 10
NC/C(=C\F)COc1ccc(C23CCC(C(=O)NCc4cnccn4)(CC2)CC3)cc1 [Compound 2.129, (E)-4-(4-((2-(aminomethyl)-3-fluoroallyl)oxy)phenyl)-N-(pyrazin-2-ylmethyl)bicyclo[2.2.2]octane-1-carboxamide]	≤ 10
COc1cccc(CNC(=O)C23CCC(c4ccc(OC/C(=C/F)CN)cc4)(CC2)CC3)n1 [Compound 2.130, (E)-4-(4-((2-(aminomethyl)-3-fluoroallyl)oxy)phenyl)-N-((6-methoxypyridin-2-yl)methyl)bicyclo[2.2.2]octane-1-carboxamide]	≤ 10
NC/C(=C\F)COc1ccc(C23CCC(C(=O)NC4CCC5(CCOCC5)CC4)(CC2)CC3)cc1 [Compound 2.131, (E)-4-(4-((2-(aminomethyl)-3-fluoroallyl)oxy)phenyl)-N-(3-oxaspiro[5.5]undecan-9-yl)bicyclo[2.2.2]octane-1-carboxamide]	≤ 10
COCC(C)(C)CNC(=O)C12CCC(c3ccc(OC/C(=C/F)CN)cc3)(CC1)CC2 [Compound 2.132, (E)-4-(4-((2-(aminomethyl)-3-fluoroallyl)oxy)phenyl)-N-(3-methoxy-2,2-dimethylpropyl)bicyclo[2.2.2] octane-1-carboxamide]	≤ 10
CO[C@@H]1CCN(C(=O)C23CCC(c4ccc(OC/C(=C/F)CN)cc4)(CC2)CC3)C1 [Compound 2.133, (R,E)-(4-(4-((2-(aminomethyl)-3-fluoroallyl)oxy)phenyl)bicyclo[2.2.2]octan-1-yl)(3-methoxypyrrolidin-1-yl)methanone]	≤ 10
COc1cc(CNC(=O)C23CCC(c4ccc(OC/C(=C/F)CN)cc4)(CC2)CC3)ccn1 [Compound 2.134, (E)-4-(4-((2-(aminomethyl)-3-fluoroallyl)oxy)phenyl)-N-((2-methoxpyridin-4-yl)methyl)bicyclo[2.2.2]octane-1-carboxamide]	≤ 10
NC/C(=C\F)COc1ccc(C23CCC(C(=O)NC4CC(F)(F)C4)(CC2)CC3)cc1 [Compound 2.135, (E)-4-(4-((2-(aminomethyl)-3-fluoroallyl)oxy)phenyl)-N-(3,3-difluorocyclobutyl)bicyclo[2.2.2] octane-1-carboxamide]	≤ 10
CC1(C)CC(NC(=O)C23CCC(c4ccc(OC/C(=C/F)CN)cc4)(CC2)CC3)C1 [Compound 2.136, (E)-4-(4-((2-(aminomethyl)-3-fluoroallyl)oxy)phenyl)-N-(3,3-dimethylcyclobutyl)bicyclo [2.2.2]octane-1-carboxamide]	≤ 10
COc1ncccc1CNC(=O)C12CCC(c3ccc(OC/C(=C/F)CN)cc3)(CC1)CC2 [Compound 2.137, (E)-4-(4-((2-(aminomethyl)-3-fluoroallyl)oxy)phenyl)-N-((2-methoxypyridin-3-yl)methyl)bicyclo[2.2.2]octane-1-carboxamide]	≤ 10

Reference: patent US20200181104A1, “SSAO INHIBITORS AND USES THEREOF” (METACRINE, INC., priority 2018, published 2020)
